The results in this text go back to EP4568957B1, “SUBSTITUTED PHENYL OXOOXAZOLYL PIPERIDINE DIONE COMPOUNDS” (Bristol-Myers Squibb Company, priority 2023, dated 2025).

This assay deals with IKZF2 Helios (Homo sapiens, UniProt Q96SW2+Q9UKS7). The assay is described as follows: Human Regulatory T Cell Degradation Assay. It counts as cell-based. On the set-up: endogenous in cells; host or cells: primary human CD4+CD127lowCD25+ Treg cells from healthy leukopaks. To be noted: human regulatory T cells, 20 hours; for DC50: vs DMSO alone. The procedure: Cryopreserved human regulatory T cells were thawed in RPMI + 10%FBS + 20 ng/mL IL-2. After being spun at 1200 rpm for 5 mins, the cells were resuspended in RPMI + 10% FBS+ 20 ng/mL and rested at 37 °C with 5% CO2 for 3 hours. The cells were then plated at 40,000 cells/well in 40 µL RPMI + 10% FBS + 20 ng/mL human IL-2 in a 384 well cell culture plate prior to using acoustic dispensing technology (ECHO 555) for adding compounds of interest. Cell cultures were incubated for 20 hours at 37 °C and 5% CO2. In order to facilitate analysis, cell cultures were spun down at 1200 rpm for 5 minutes and the supernatant was discarded using an EL406 plate washer. After washing three times with 70 µL PBS, cell pellets were resuspended in 50 µL of near IR viability staining solution (Life Technologies, Cat# L34975) and incubated for 30 minutes on ice protected from light. Cells were washed three times with 70 µL PBS + 0.5% BSA using an EL406 plate washer. After shaking the plate to dislodge the cell pellet, cells were resuspended in 50 µL of Fixation Buffer (eBioScience FoxP3 buffer set 00-5523-00) for 60 minutes at room temperature. After centrifuging and discarding the supernatant, cells were permeabilized with 50 µL of permeabilization buffer (eBioScience FoxP3 buffer set 00-5523-00) for 10 minutes at room temperature. Following permeabilization, cells were spun down and the supernatant was replaced with 30 µL fluorescently labelled antibodies against the intracellular targets Helios (Helios-APC [BioLegend, Cat# 137222, 1:50]), Aiolos, and Ikaros lx Permeabilization buffer and staining reactions were incubated for 1 hour at room temperature; protected from light. Subsequently, 30 µL of lx Permeabilization buffer was added prior to centrifuging the cells and discarding the supernatant. Stained cells were resuspended in 30 µL of flow cytometry staining buffer (PBS + 0.5%BSA) and analyzed using an Intellicyt Ique Plus flow cytometer. TABLE B-1

For orientation: DC50 means the concentration giving 50% degradation. A lower DC50 goes with a more potent degrader.

Sequence of IKZF2 Helios (Q9UKS7 whole entry): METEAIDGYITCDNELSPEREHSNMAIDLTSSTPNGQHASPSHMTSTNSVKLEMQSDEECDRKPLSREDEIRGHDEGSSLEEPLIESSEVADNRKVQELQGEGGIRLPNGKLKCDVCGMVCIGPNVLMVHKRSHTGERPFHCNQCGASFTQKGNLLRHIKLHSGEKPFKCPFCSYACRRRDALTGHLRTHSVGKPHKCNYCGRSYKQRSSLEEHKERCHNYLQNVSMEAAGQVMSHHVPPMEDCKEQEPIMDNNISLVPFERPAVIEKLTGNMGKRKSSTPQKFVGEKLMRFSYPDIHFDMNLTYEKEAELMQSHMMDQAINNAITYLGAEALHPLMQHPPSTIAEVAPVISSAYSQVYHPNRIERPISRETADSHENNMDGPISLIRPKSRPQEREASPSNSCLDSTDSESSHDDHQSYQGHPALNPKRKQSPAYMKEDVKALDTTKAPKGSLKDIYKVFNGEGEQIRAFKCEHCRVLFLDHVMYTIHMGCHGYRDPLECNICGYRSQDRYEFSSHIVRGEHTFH
Sequence of IKZF2 Helios (Q96SW2 whole entry): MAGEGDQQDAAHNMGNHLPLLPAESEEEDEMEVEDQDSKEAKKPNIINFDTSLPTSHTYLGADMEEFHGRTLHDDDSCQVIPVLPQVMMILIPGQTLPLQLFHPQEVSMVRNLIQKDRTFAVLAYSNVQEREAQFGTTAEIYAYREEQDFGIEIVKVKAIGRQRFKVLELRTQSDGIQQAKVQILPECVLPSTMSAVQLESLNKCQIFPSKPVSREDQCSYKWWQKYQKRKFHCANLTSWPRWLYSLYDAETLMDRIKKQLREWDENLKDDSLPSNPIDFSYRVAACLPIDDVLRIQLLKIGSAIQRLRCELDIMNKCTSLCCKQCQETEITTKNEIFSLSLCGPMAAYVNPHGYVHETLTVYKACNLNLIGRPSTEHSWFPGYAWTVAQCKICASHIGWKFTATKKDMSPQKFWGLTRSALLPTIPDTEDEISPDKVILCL
Sequence of IKZF2 Helios (Q16531 whole entry partner): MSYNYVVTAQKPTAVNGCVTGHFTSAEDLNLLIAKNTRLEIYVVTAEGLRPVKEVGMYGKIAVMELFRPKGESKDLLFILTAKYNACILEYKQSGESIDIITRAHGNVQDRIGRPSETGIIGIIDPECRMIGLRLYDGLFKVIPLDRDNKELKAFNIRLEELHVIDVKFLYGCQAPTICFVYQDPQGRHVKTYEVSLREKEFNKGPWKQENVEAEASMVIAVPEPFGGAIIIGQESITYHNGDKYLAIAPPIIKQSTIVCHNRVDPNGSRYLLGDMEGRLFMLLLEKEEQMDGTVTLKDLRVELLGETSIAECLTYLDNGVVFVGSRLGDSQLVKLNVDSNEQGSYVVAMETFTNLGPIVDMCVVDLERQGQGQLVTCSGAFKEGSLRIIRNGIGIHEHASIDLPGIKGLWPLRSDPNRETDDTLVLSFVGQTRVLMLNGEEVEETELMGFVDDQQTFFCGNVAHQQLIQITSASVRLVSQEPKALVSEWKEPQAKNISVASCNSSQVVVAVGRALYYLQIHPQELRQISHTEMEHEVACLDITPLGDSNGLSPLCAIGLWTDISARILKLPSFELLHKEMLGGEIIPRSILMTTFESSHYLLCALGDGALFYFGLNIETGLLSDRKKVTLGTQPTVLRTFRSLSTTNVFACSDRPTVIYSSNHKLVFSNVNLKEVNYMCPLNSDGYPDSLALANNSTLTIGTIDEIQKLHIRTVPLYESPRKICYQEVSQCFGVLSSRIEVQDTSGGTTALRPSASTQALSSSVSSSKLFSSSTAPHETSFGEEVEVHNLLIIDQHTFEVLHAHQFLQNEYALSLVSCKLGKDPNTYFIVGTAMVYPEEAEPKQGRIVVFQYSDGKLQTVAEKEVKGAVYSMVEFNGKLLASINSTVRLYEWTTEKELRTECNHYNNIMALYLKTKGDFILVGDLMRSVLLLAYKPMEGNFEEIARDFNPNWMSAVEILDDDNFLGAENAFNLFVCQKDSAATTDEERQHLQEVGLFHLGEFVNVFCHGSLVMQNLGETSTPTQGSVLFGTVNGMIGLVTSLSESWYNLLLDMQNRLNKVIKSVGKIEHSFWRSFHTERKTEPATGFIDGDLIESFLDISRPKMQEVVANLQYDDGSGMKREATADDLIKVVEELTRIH

Turning to `Cc1cc(-c2ccc(-c3cn(C4CCC(=O)NC4=O)c(=O)o3)c(F)c2)nc(N)c1NCC1CCOCC1` (stereo not shown) [Example 3, 3-(5-(4-(6-amino-4-methyl-5-(((tetrahydro-2H-pyran-4-yl)methyl)amino)pyridin-2-yl)-2-fluorophenyl)-2-oxooxazol-3(2H)-yl)piperidine-2,6-dione], the “IKZF2 Helios max % deg. observed” value worked out at 98% and the DC50 was found to be 51 nM.
As to `CO[C@H]1C[C@H](Oc2c(C)cc(-c3ccc(-c4cn(C5CCC(=O)NC5=O)c(=O)o4)c(F)c3)nc2N)C1` (relative stereo) [Example 2, trans 3-(5-(4-(6-amino-5-(3-methoxycyclobutoxy)-4-methylpyridin-2-yl)-2-fluorophenyl)-2-oxooxazol-3(2H)-yl)piperidine-2,6-dione], the “IKZF2 Helios max % deg. observed” value was 98% and the half-maximal degradation concentration (DC50) was found to be 71 nM.
As for `COC1CCN(Cc2ccc(-c3ccc(-c4cn(C5CCC(=O)NC5=O)c(=O)o4)c(F)c3)nc2N)CC1` (stereo not shown) [Example 4, 3-(5-(4-(6-amino-5-((4-methoxypiperidin-1-yl)methyl)pyridin-2-yl)-2-fluorophenyl)-2-oxooxazol-3(2H)-yl)piperidine-2,6-dione], the “IKZF2 Helios max % deg. observed” value is on record as 98% and the DC50 was 59 nM.
In the same order, the values of `CC1(C)Cc2cc(-c3ccc(-c4cn(C5CCC(=O)NC5=O)c(=O)o4)c(F)c3)nc(N)c2O1` (stereo not shown) [Example 1, 3-(5-(4-(7-amino-2,2-dimethyl-2,3-dihydrofuro[2,3-c]pyridin-5-yl)-2-fluorophenyl)-2-oxooxazol-3(2H)-yl)piperidine-2,6-dione] are 98% and 52 nM.
In the same order, the values of `Cc1cc(-c2ccc(-c3cn(C4CCC(=O)NC4=O)c(=O)o3)c(F)c2)nc(N)c1COC1CCOCC1` (stereo not shown) [Example 5, 3-(5-(4-(6-Amino-4-methyl-5-(((tetrahydro-2H-pyran-4-yl)oxy)methyl)pyridin-2-yl)-2-fluorophenyl)-2-oxooxazol-3(2H)-yl)piperidine-2,6-dione] are 98% and 46 nM.
